This note sets out measurements from patent US20040152750A1, “Novel glucagon antagonists” (priority 2002, published 2004).

Structures are written as SMILES.

Usually melting point stands for the temperature of the solid-liquid transition.

Regarding `O=C(O)CCNC(=O)c1ccc(N(Cc2ccc(C3=CCCCC3)cc2)C(=O)/C=C/c2cccc(OC(F)(F)F)c2)cc1` [Example 211, 3-(4-{(4-Cyclohex-1-enylbenzyl)-[3-(3-trifluoromethoxyphenyl)acryloyl]amino}benzoylamino) -propionic acid], the melting point fell in the range of 178 to 180 °C.
